Source: ChEMBL document CHEMBL1629559, “Real-time PCR detection of gyrA and parC mutations in Streptococcus pneumoniae” (2008)
≈ marks a conversion by molar mass, not a printed value.

Assays:
Streptococcus pneumoniae [1] = assay: Antibacterial activity against Streptococcus pneumoniae CP1000 by agar dilution method; assay type: functional
Streptococcus pneumoniae [2] = assay: Antibacterial activity against Streptococcus pneumoniae U2A1686 harboring gyrA Glu85Lys mutant gene by agar dilution method; assay type: functional
Streptococcus pneumoniae [3] = assay: Antibacterial activity against Streptococcus pneumoniae U2A1411 harboring parC Asp83Gly mutant gene by agar disk diffusion method; assay type: functional
Streptococcus pneumoniae [4] = assay: Antibacterial activity against Streptococcus pneumoniae U2A1050 harboring gyrA Ser81Phe mutant gene by agar disk diffusion method; assay type: functional
Streptococcus pneumoniae [5] = assay: Antibacterial activity against Streptococcus pneumoniae R6 Tr1 harboring parC Ser79Tyr mutant gene by agar dilution method; assay type: functional
Streptococcus pneumoniae [6] = assay: Antibacterial activity against Streptococcus pneumoniae R6 Tr10 harboring gyrA Ser81Tyr parC Ser79Tyr mutant gene by agar disk diffusion method; assay type: functional
Streptococcus pneumoniae [7] = assay: Antibacterial activity against Streptococcus pneumoniae R6 Tr1 harboring parC Ser79Tyr mutant gene by agar disk diffusion method; assay type: functional
Streptococcus pneumoniae [8] = assay: Antibacterial activity against Streptococcus pneumoniae R6 Tr10 harboring gyrA Ser81Tyr parC Ser79Tyr mutant gene by agar dilution method; assay type: functional
Streptococcus pneumoniae [9] = assay: Antibacterial activity against Streptococcus pneumoniae U2A1053 harboring parC Ser79Phe mutant gene by agar disk diffusion method; assay type: functional
Streptococcus pneumoniae [10] = assay: Antibacterial activity against Streptococcus pneumoniae U2A1056 harboring gyrA Ser81Tyr parC Asp83His mutant gene by agar dilution method; assay type: functional
Streptococcus pneumoniae [11] = assay: Antibacterial activity against Streptococcus pneumoniae U2A1266 harboring gyrA Ser81Cys mutant gene by agar disk diffusion method; assay type: functional
Streptococcus pneumoniae [12] = assay: Antibacterial activity against Streptococcus pneumoniae U2A1414 harboring gyrA Glu85Lys parC Ser79Phe mutant gene by agar disk diffusion method; assay type: functional
Streptococcus pneumoniae [13] = assay: Antibacterial activity against Streptococcus pneumoniae U2A1411 harboring parC Asp83Gly mutant gene by agar dilution method; assay type: functional
Streptococcus pneumoniae [14] = assay: Antibacterial activity against Streptococcus pneumoniae CIP104485 by agar disk diffusion method; assay type: functional, CIP1044
Streptococcus pneumoniae [15] = assay: Antibacterial activity against Streptococcus pneumoniae CIP104485 by agar dilution method; assay type: functional; settings: CIP1044
Streptococcus pneumoniae [16] = assay: Antibacterial activity against Streptococcus pneumoniae U2A1681 harboring parC Ser79Tyr Asp83Ala mutant gene by agar dilution method; assay type: functional
Streptococcus pneumoniae [17] = assay: Antibacterial activity against Streptococcus pneumoniae U2A1053 harboring parC Ser79Phe mutant gene by agar dilution method; assay type: functional
Streptococcus pneumoniae [18] = assay: Antibacterial activity against Streptococcus pneumoniae U2A1266 harboring gyrA Ser81Cys mutant gene by agar dilution method; assay type: functional
Streptococcus pneumoniae [19] = assay: Antibacterial activity against Streptococcus pneumoniae H548 clinical isolate harboring gyrA Ser81Phe mutant gene by agar dilution method; assay type: functional
Streptococcus pneumoniae [20] = assay: Antibacterial activity against Streptococcus pneumoniae U2A1413 harboring parC Ser79Tyr mutant gene by agar disk diffusion method; assay type: functional
Streptococcus pneumoniae [21] = assay: Antibacterial activity against Streptococcus pneumoniae U2A1051 harboring gyrA Ser81Tyr mutant gene by agar dilution method; assay type: functional
Streptococcus pneumoniae [22] = assay: Antibacterial activity against Streptococcus pneumoniae H548 clinical isolate harboring gyrA Ser81Phe mutant gene by agar disk diffusion method; assay type: functional
Streptococcus pneumoniae [23] = assay: Antibacterial activity against Streptococcus pneumoniae R6 Tr6 harboring gyrA Ser81Phe mutant gene by agar dilution method; assay type: functional
Streptococcus pneumoniae [24] = assay: Antibacterial activity against Streptococcus pneumoniae U2A1413 harboring parC Ser79Tyr mutant gene by agar dilution method; assay type: functional
Streptococcus pneumoniae [25] = assay: Antibacterial activity against Streptococcus pneumoniae U2A1056 harboring gyrA Ser81Tyr parC Asp83His mutant gene by agar disk diffusion method; assay type: functional
Streptococcus pneumoniae [26] = assay: Antibacterial activity against Streptococcus pneumoniae U2A1060 harboring gyrA Ser81Phe parC Asp83His mutant gene by agar dilution method; assay type: functional
Streptococcus pneumoniae [27] = assay: Antibacterial activity against Streptococcus pneumoniae U2A1050 harboring gyrA Ser81Phe mutant gene by agar dilution method; assay type: functional
Streptococcus pneumoniae [28] = assay: Antibacterial activity against Streptococcus pneumoniae R6 by agar disk diffusion method; assay type: functional
Streptococcus pneumoniae [29] = assay: Antibacterial activity against Streptococcus pneumoniae U2A1686 harboring gyrA Glu85Lys mutant gene by agar disk diffusion method; assay type: functional
Streptococcus pneumoniae [30] = assay: Antibacterial activity against Streptococcus pneumoniae U2A1681 harboring parC Ser79Tyr Asp83Ala mutant gene by agar disk diffusion method; assay type: functional
Streptococcus pneumoniae [31] = assay: Antibacterial activity against Streptococcus pneumoniae CP1000 by agar disk diffusion method; assay type: functional
Streptococcus pneumoniae [32] = assay: Antibacterial activity against Streptococcus pneumoniae U2A1693 harboring parC Asp83Asn mutant gene by agar dilution method; assay type: functional
Streptococcus pneumoniae [33] = assay: Antibacterial activity against Streptococcus pneumoniae R6 Tr6 harboring gyrA Ser81Phe mutant gene by agar disk diffusion method; assay type: functional
Streptococcus pneumoniae [34] = assay: Antibacterial activity against Streptococcus pneumoniae U2A1051 harboring gyrA Ser81Tyr mutant gene by agar disk diffusion method; assay type: functional
Streptococcus pneumoniae [35] = assay: Antibacterial activity against Streptococcus pneumoniae R6 by agar dilution method; assay type: functional
Streptococcus pneumoniae [36] = assay: Antibacterial activity against Streptococcus pneumoniae U2A1693 harboring parC Asp83Asn mutant gene by agar disk diffusion method; assay type: functional
Streptococcus pneumoniae [37] = assay: Antibacterial activity against Streptococcus pneumoniae U2A1060 harboring gyrA Ser81Phe parC Asp83His mutant gene by agar disk diffusion method; assay type: functional
Streptococcus pneumoniae [38] = assay: Antibacterial activity against Streptococcus pneumoniae U2A1414 harboring gyrA Glu85Lys parC Ser79Phe mutant gene by agar dilution method; assay type: functional

For `CCn1cc(C(=O)O)c(=O)c2cc(F)c(N3CCNCC3)cc21` [NORFLOXACIN], the MIC (Streptococcus pneumoniae [1]) was 4 µg/mL (≈ 12.5 µM), the MIC (Streptococcus pneumoniae [2]) was 4 µg/mL (≈ 12.5 µM) and the “diameter of the inhibition zone (DIZ)” value (Streptococcus pneumoniae [3]) was 6 mm. For the same molecule, the “diameter of the inhibition zone (DIZ)” value (Streptococcus pneumoniae [4]) was 16 mm, the MIC (Streptococcus pneumoniae [5]) was 64 µg/mL (≈ 200 µM) and the “diameter of the inhibition zone (DIZ)” value (Streptococcus pneumoniae [6]) was 6 mm. The “diameter of the inhibition zone (DIZ)” value (Streptococcus pneumoniae [7]) was 6 mm, the MIC (Streptococcus pneumoniae [8]) was 128 µg/mL (≈ 401 µM) and the “diameter of the inhibition zone (DIZ)” value (Streptococcus pneumoniae [9]) was 6 mm. For the same molecule, the MIC (Streptococcus pneumoniae [10]) was 128 µg/mL (≈ 401 µM), the “diameter of the inhibition zone (DIZ)” value (Streptococcus pneumoniae [11]) was 13 mm and the “diameter of the inhibition zone (DIZ)” value (Streptococcus pneumoniae [12]) was 6 mm. For the same molecule, the MIC (Streptococcus pneumoniae [13]) was 256 µg/mL (≈ 802 µM), the “diameter of the inhibition zone (DIZ)” value (Streptococcus pneumoniae [14]) was 19 mm and the MIC (Streptococcus pneumoniae [15]) was 4 µg/mL (≈ 12.5 µM). It also gave an MIC (Streptococcus pneumoniae [16]) of 256 µg/mL (≈ 802 µM), an MIC (Streptococcus pneumoniae [17]) of 64 µg/mL (≈ 200 µM) and an MIC (Streptococcus pneumoniae [18]) of 8 µg/mL (≈ 25.1 µM). For the same molecule, the MIC (Streptococcus pneumoniae [19]) was 32 µg/mL (≈ 100 µM), the “diameter of the inhibition zone (DIZ)” value (Streptococcus pneumoniae [20]) was 6 mm and the MIC (Streptococcus pneumoniae [21]) was 8 µg/mL (≈ 25.1 µM). For the same molecule, the “diameter of the inhibition zone (DIZ)” value (Streptococcus pneumoniae [22]) was 6 mm, the MIC (Streptococcus pneumoniae [23]) was 4 µg/mL (≈ 12.5 µM) and the MIC (Streptococcus pneumoniae [24]) was 32 µg/mL (≈ 100 µM). The “diameter of the inhibition zone (DIZ)” value (Streptococcus pneumoniae [25]) was 6 mm, the MIC (Streptococcus pneumoniae [26]) was 256 µg/mL (≈ 802 µM) and the MIC (Streptococcus pneumoniae [27]) was 8 µg/mL (≈ 25.1 µM). For the same molecule, the “diameter of the inhibition zone (DIZ)” value (Streptococcus pneumoniae [28]) was 19 mm, the “diameter of the inhibition zone (DIZ)” value (Streptococcus pneumoniae [29]) was 22 mm and the “diameter of the inhibition zone (DIZ)” value (Streptococcus pneumoniae [30]) was 6 mm. For the same molecule, the “diameter of the inhibition zone (DIZ)” value (Streptococcus pneumoniae [31]) was 21 mm, the MIC (Streptococcus pneumoniae [32]) was 64 µg/mL (≈ 200 µM) and the “diameter of the inhibition zone (DIZ)” value (Streptococcus pneumoniae [33]) was 18 mm. The “diameter of the inhibition zone (DIZ)” value (Streptococcus pneumoniae [34]) was 18 mm, the MIC (Streptococcus pneumoniae [35]) was 4 µg/mL (≈ 12.5 µM) and the “diameter of the inhibition zone (DIZ)” value (Streptococcus pneumoniae [36]) was 6 mm. For the same molecule, the “diameter of the inhibition zone (DIZ)” value (Streptococcus pneumoniae [37]) was 6 mm and the MIC (Streptococcus pneumoniae [38]) was 256 µg/mL (≈ 802 µM).
